According to EP0457908A1, “HYDROCHLORIDE 2,3,3a,4,5,6-HEXAHYDRO-8-CYCLOHEXYL-1H-PYRAZINO (3,2,1-j,k)CARBAZOL, METHOD OF OBTAINING IT AND A PHARMACEUTICAL PREPARATION OF ANTIDEPRESSIVE ACTION BASED ON IT” (priority 1989, dated 1991):

What was measured:
[1] = Allergenic, embryotoxic and teratogenic effect; settings: in vivo
patients = test: Clinical test on patients with depressions; assay type: in vivo, human beings
Protocol: The drug according to the present invention was tested in a clinic on patients (561 persons) aged 18 to 72 suffering from depressions of various genesis - endogenous, reactive, neurotic depressions caused by organic injuries of the brain, as well as depressive disturbances in chronical alcoholism and the like.
Clinical tests for different types of depressions were carried out in the following groups of patients:
The drug according to the present invention was administered orally in tablets twice a day - in the morning and in the afternoon. The dose depended on the severity of disease, efficiency and tolerance of the drug.
The treatment was usually started with administration of the drug in single doses of 0.025 g (25 mg) with a gradual increment of the daily dose for 1 to 3 weeks up to 200-300 to 350-400 mg.
The treatment duration ranged from 7 days to 12 weeks, more frequently 40-45 days.
In a number of cases (55 patients) the drug according to the present invention was administered in combination with other psychotropic agents selected mainly from the group of tranquilizers and neuroleptics (tazepam, seduxen, tizercin, and the like).
The efficiency as the drug according to the present invention was assessed with the use of assessment scales.

[2] = endogenous depressions (maniac-depressive psychosis, schizophrenia), asthenic or asthenoadynamic syndromes, light and medium severity

2,3,3a,4,5,6-hexahydro-8-cyclohexyl-1H-pyrazino-(3,2,1-j,k)-carbazole hydrochloride [Compound of the present invention]
allergenic, embryotoxic or teratogenic effect [1]: did not exhibit an allergenic effect, an embryotoxic or teratogenic effect
improvement observed, % of cases (patients; depressive disorders of the neurotic and reactive genesis): 80-100%
improvement observed, % of the events (patients; [2]): 37-92%
improvement observed, % of the events, on the average (patients; [2]): 50%
patients with a previous resistance to another antidepressant therapy in whom the drug was highly effective (patients; human, in vivo): 6 out of 21
toleration by patients (patients; human, in vivo): good toleration by patients
